Data set [1] has as its system human red blood cells (RBC). As to the kind of experiment: Haemolysis assay. Conditions: fresh human red blood cells. It counts as cell-based. The protocol:
Red blood cells (RBCs) were isolated from a buffy coat using a Ficoll gradient. The obtained RBC pellet (˜4-5 ml) was washed 2× with 50 ml DPBS (without Ca^2+/Mg^2+, PAN-Biotech GmbH). Cells were pelleted by centrifugation for 10 min, 800×g at RT. RBC were counted and resuspended at 500,000,000 c/ml in DPBS (without Ca^2+/Mg^2+), based on total cell count. SO1861-linker dilutions were prepared in DPBS (with Ca^2+/Mg^2+, PAN-Biotech GmbH), at 1.11× final strength. For positive lysis control a 0.02% Triton-X100 solution was prepared in DPBS^+/+. Of all compound solutions 135 μl was dispensed/well in a 96 well V-bottom plate. To this 15 μl RBC suspension was added and mixed shortly (10 sec-600 rpm). The plate was incubated 30 min at RT, with gentle agitation. Afterwards the plate was spun for 10 min at 800×g to pellet the RBC and 100-120 μl supernatant was transferred to a standard 96 wp. Subsequently, the OD at 405 nm was measured on a Thermo Scientific Multiskan FC plate reader (Thermo Scientific).

A short description of data set [2]: Release kinetics assay. It is filed as physicochemical. Conditions: pH 4.0, 37° C. The procedure: The SO1861 conjugate of interest was dissolved in an acetate buffer (20 mM, pH 4.0 or pH 5.0), a phosphate buffer (20 mM) or in a PBS buffer (pH 7.4) with a final concentration of 10 μM at 20° C. or at 37° C. The release of SO1861 was followed overtime by monitoring the decrease of the UPLC-UV 4 peak area of the SO1861 conjugate of interest at different time points.

Data set [3] deals with HeLa cells. It counts as cell-based, human. The protocol: (§1) Cell viability was determined by an MTS-assay, performed according to the manufacturer's instruction (CellTiter 96® AQueous One Solution Cell Proliferation Assay, Promega). Briefly, the MTS solution was diluted 20× in DMEM without phenol red (PAN-Biotech GmbH) supplemented with 10% FBS (PAN-Biotech GmbH). The cells were washed once with 200 μL PBS per well, after which 100 μL diluted MTS solution was added per well. The plate was incubated for approximately 20-30 minutes at 37° C. Subsequently, the optical density at 492 nm was measured on a Thermo Scientific Multiskan FC plate reader (Thermo Scientific).

Data set [4] relates to A431 cells. It counts as cell-based, human. The protocol:
as §1

For data set [5], the system named is HeLa cells. Put plainly: Cell toxicity (MTS cell viability assay). It counts as cell-based, human. The note with it: saponin alone. The procedure:
as §1
(In general: Tetrazolium assays rely on reduction of a dye to a coloured formazan, in cell work by metabolically active cells.)

The test system of data set [6] is A431 cells. As to the kind of experiment: Cell toxicity (MTS cell viability assay). It is filed as cell-based, human. Conditions: saponin alone. The protocol: as §1
Data set [7] has as its system HSP27 mRNA expression in A431 cells. As to the kind of experiment: HSP27 gene silencing (qPCR) in A431 cells. It counts as cell-based. The note with it: Homo sapiens, A-431, saponin titrated +50 nM Trastuzumab-HSP27BNA. The text has this: RNA Isolation and Gene Expression Analysis
RNA from cells was isolated and analysed according to standard protocols (Biorad).

Setting [8] is: +5 pM EGFdianthin or 10 pM cetuximab-saporin or 50 pM Trastuzumab-saporin.
[9] abbreviates: read-out: IC50 nM (Activity; +5 pM EGFdianthin), saponin titrated +5 pM EGFdianthin.

Like-named read-outs stand apart in the source and are kept apart here.

In the case of `CC(=O)OC1C(C)OC(OC2C(C)OC(OC(=O)[C@]34CCC(C)(C)CC3C3=CCC5[C@@]6(C)CC[C@H](OC7OC(C(=O)O)C(O)C(OC8OCC(O)C(O)C8O)C7OC7OC(CO)C(O)C(O)C7O)[C@@](C)(C=NNC(=O)CCCCCN7C(=O)CC(SCCO)C7=O)C6CC[C@@]5(C)[C@]3(C)C[C@H]4O)C(OC3OC(C)C(OC4OCC(O)C(OC5OC(CO)C(O)C(O)C5O)C4O)C(O)C3O)C2O)C(O)C1OC1OCC(O)C(O)C1O` (stereo partly drawn) [SO1861-EMCH (blocked)], in data set [1] (Erythrocyte), the IC50 (usually the point on the concentration scale where inhibition reaches its midpoint) amounted to 6 µM. For the same molecule, in data set [2], the “time to 50% release of SO1861” value was determined as 12 h.
On to `CC(=O)O[C@H]1[C@H](O[C@@H]2OC[C@@H](O)[C@H](O)[C@H]2O)[C@@H](O)[C@H](O[C@@H]2[C@H](O)[C@@H](O[C@@H]3O[C@@H](C)[C@H](O[C@@H]4OC[C@@H](O)[C@H](O[C@@H]5O[C@H](CO)[C@@H](O)[C@H](O)[C@H]5O)[C@H]4O)[C@@H](O)[C@H]3O)[C@H](OC(=O)[C@]34CCC(C)(C)C[C@H]3C3=CC[C@@H]5[C@@]6(C)CC[C@H](O[C@@H]7O[C@H](C(=O)O)[C@@H](O)[C@H](O[C@@H]8OC[C@@H](O)[C@H](O)[C@H]8O)[C@H]7O[C@@H]7O[C@H](CO)[C@H](O)[C@H](O)[C@H]7O)[C@@](C)(C=O)[C@@H]6CC[C@@]5(C)[C@]3(C)C[C@H]4O)O[C@@H]2C)O[C@@H]1C` [SO1861], for which the “cell-killing activity compared with the SO1861 derivatives” value in data set [3] (setting [8]) and in data set [4] (setting [8]) was “strongest cell-killing activity” throughout. The IC50 in data set [3] (setting [9]) is 500 nM; in data set [4] (setting [9]), 300 nM; in data set [1], 10 µM; in data set [5] it was 9 µM; in data set [6], 2 µM.
Consider `CC(=O)OC1C(C)OC(OC2C(C)OC(OC(=O)[C@]34CCC(C)(C)CC3C3=CCC5[C@@]6(C)CC[C@H](OC7OC(C(=O)O)C(O)C(OC8OCC(O)C(O)C8O)C7OC7OC(CO)C(O)C(O)C7O)[C@@](C)(C=NNC(=O)N7CCN(C(=O)CCCCCN8C(=O)C=CC8=O)CC7)C6CC[C@@]5(C)[C@]3(C)C[C@H]4O)C(OC3OC(C)C(OC4OCC(O)C(OC5OC(CO)C(O)C(O)C5O)C4O)C(O)C3O)C2O)C(O)C1OC1OCC(O)C(O)C1O` (stereo partly drawn) [SO1861-SC-Mal], for which the half-maximal inhibitory concentration (IC50) in data set [7] was 0.6 µM; in data set [1] (Erythrocyte) it was 250 µM; in data set [5] (Homo sapiens) it was above 100 µM.

The values are drawn from patent publication US20240115712A1, “SEMICARBAZONE-BASED SAPONIN CONJUGATE” (priority 2021, published 2024).
